In brackets after ≈: the same amount, converted by molar mass.
What was measured:
[1] = tested on: Septoria tritici (ATCC 26517); test: Minimum Inhibitory Concentration (MIC) vs. Septoria tritici, CLSI-based microdilution; format: cell-based; conditions: Zymoseptoria tritici, ATCC26517, 168 h; MIC = 50% reduction in growth of S. tritici, 7 days at 22 °C, RPMI/MOPS, 1% DMSO; read-out: Septoria Rating (MIC)
Description: Compounds of the present disclosure were assessed for their ability to inhibit the growth of a common strain of the fungal plant pathogen Septoria tritici (ATCC 26517) using a procedure based on a Clinical and Laboratory Standards Institute (CLSI) microdilution assay protocol for filamentous fungi. Stock solutions of the test compounds and standards were prepared in DMSO at 6400 μg/mL. Each stock solution was used to prepare a 2-fold dilution series ranging from 16 to 0.016 μg/mL (total of 11 compound concentrations) in RPMI-1640 (Roswell Park Memorial Institute) medium containing 3-(N-morpholino)propanesulfonic acid (MOPS) buffer and 2% DMSO. A 100 μL aliquot of the dilutions was added to columns 1 (16 μg/mL compound) through 11 (0.016 μg/mL compound) of a 96-well microtiter plate. This format was replicated in a second row of the microtiter plate. Thus, each microtiter plate could include 11 concentrations of four test or control compounds replicated twice. A 100 μL aliquot of RPMI-1640/MOPS/2% DMSO medium was added to column 12 (no compound control) of the microtiter plate. A fresh culture of S. tritici was used to prepare a solution of approximately 5×10^4 colony-forming units per milliliter (cfu/mL) in RPMI/MOPS medium without DMSO. A 100 μL aliquot of this solution was added to all 96 wells in the microtiter plate. […] In each case of Table 3 the Septoria rating scale is as follows: […]

T. rubrum = test: Minimum Inhibitory Concentration (MIC) (T. rubrum), CLSI M27-A2; format: cell-based; conditions: Trichophyton rubrum; about 50% growth reduction, approx. 96 h at 35 °C, RPMI+MOPS
Description: Compounds of the present disclosure were assessed for their ability to inhibit the growth of common strains of fungus, T. rubrum using a standardized procedure (CLSI M27-A2). Stock solutions of the test compounds and standards were prepared in DMSO at 1,600 μg/mL (T. rubrum). Eleven, serial, one-half dilutions of compounds were prepared in 96-well plates in RPMI+MOPS. The assay concentration ranges were 8-0.001 μg/mL (T. rubrum). Cell suspensions of T. rubrum were prepared and added to each well at concentrations of approximately 3.7×10^3 colony-forming-units per milliliter (cfu/mL). All testing was in duplicate. The inoculated plates were incubated for approximately 96 h at 35±1° C. At the completion of incubation the wells of each plate were evaluated visually for the presence of fungal growth. […] For voriconazole the MIC was the concentration which reduced T rubrum growth by 50% (per CLSI, M27-A2). For QC purposes C. krusei isolate ATCC 6258 (4.0×10^3 cfu/mL) was included in the VOR assay.

[2] = tested on: Puccinia recondita tritici = Puccinia triticina (PUCCRT); test: Fungicidal activity vs. leaf rust on wheat plants (1-day protectant spray); format: in vivo; conditions: wheat (variety Yuma) sprayed at 50 ppm, inoculated next day, disease severity evaluated 7-9 days later, read-out: Puccinia Rating (% Disease Control @ 50 ppm)
Excerpt: Each pot contained 3-8 seedlings. These plants were sprayed until wet with the formulated test compounds. The compounds were formulated at 50 ppm in 10 vol. % acetone plus 90 vol. % Triton X water (deionized water 99.99 wt %+0.01 wt % Triton X100), giving a “formulated test compound.” Formulated test compounds were applied to plants using a turn table sprayer fitted with two opposing air atomization nozzles which delivered approximately 1500 L/ha of spray volume. On the following day, the leaves were inoculated with an aqueous spore suspension of Puccinia recondita tritici and the plants were kept in high humidity overnight to permit spores to germinate and infect the leaf. The plants were then transferred to a greenhouse until disease developed on untreated control plants. Disease severity was evaluated 7-9 days later, depending on the speed of disease development. In each case of Table 3, the Puccinia rating scale is as follows: […]

| SMILES | MIC [1] [µg/mL] | MIC (T. rubrum) [µg/mL] | pest or weed control at 50 ppm [2] [%] |
| --- | --- | --- | --- |
| OC(c1cncnc1)(c1ccc(F)cc1F)C(F)(F)c1ccc(Br)cn1 (racemic) [Example 1, 2-(5-bromopyridin-2-yl)-1-(2,4-difluorophenyl)-2,2-difluoro-1-(pyrimidin-5-yl)ethanol] | 0.5 to 1.5 (≈ 1.17 to 3.5 µM) | 0.125 (≈ 0.292 µM) |  |
| OC(c1nc[nH]n1)(c1ccc(F)cc1F)C(F)(F)c1ccc(C#Cc2ccc(F)cc2)cn1 (racemic) [Example 27] | > 4 |  | < 40 |
| OC(c1cncnc1)(c1ccc(F)cc1F)C(F)(F)c1ccc(OCC(F)(F)F)cn1 (racemic) [Example 34] | 0.5 to 1.5 (≈ 1.12 to 3.35 µM) |  | 80 to 100 |
| OC(c1cncnc1)(c1ccc(F)cc1F)C(F)(F)c1ccc(OCc2ccc(Cl)cc2)cn1 (racemic) [Example 41] | ≤ 0.5 |  | 80 to 100 |
| COc1ccc(Oc2ccc(C(F)(F)C(O)(c3cncnc3)c3ccc(F)cc3F)nc2)cc1 (racemic) [Example 42] | 0.5 to 1.5 (≈ 1.06 to 3.18 µM) |  | 80 to 100 |
| OC(c1cncnc1)(c1ccc(F)cc1F)C(F)(F)c1ccc(Oc2cccc(Cl)c2)cn1 (racemic) [Example 47] | 0.5 to 1.5 (≈ 1.05 to 3.15 µM) |  | 80 to 100 |
| OC(c1cncnc1)(c1ccc(F)cc1F)C(F)(F)c1ccc(OCc2ccc(Cl)c(F)c2)cn1 (racemic) [Example 51] | 0.5 to 1.5 (≈ 0.985 to 2.95 µM) |  | 60 to 79 |
| OC(c1cncnc1)(c1ccc(F)cc1F)C(F)(F)c1ccc(OCc2ccc(F)c(F)c2)cn1 (racemic) [Example 60] | 0.5 to 1.5 (≈ 1.02 to 3.05 µM) |  | 60 to 79 |
| OC(c1cncnc1)(c1ccc(F)cc1F)C(F)(F)c1ccc(OCc2ccc(C(F)(F)F)cc2)cn1 (racemic) [Example 65] | ≤ 0.5 |  | 80 to 100 |
| OC(c1cncnc1)(c1ccc(F)cc1F)C(F)(F)c1ccc(OCc2ccc(Cl)c(Cl)c2)cn1 (stereo not shown) [Example 52] | 0.5 to 1.5 (≈ 0.954 to 2.86 µM) |  | 60 to 79 |
| C[C@@H](c1ncncc1F)[C@](O)(Cn1cncn1)c1ccc(F)cc1F [Voriconazole, voriconazole, reference compound] |  | 0.062 (≈ 0.177 µM) |  |

More lines, main results first:

| MIC [1] [µg/mL] | MIC (T. rubrum) [µg/mL] | SMILES | pest or weed control at 50 ppm [2] [%] |
| --- | --- | --- | --- |
| ≤ 0.5 | 0.25 (≈ 0.535 µM) | OC(c1cncnc1)(c1ccc(F)cc1F)C(F)(F)c1ccc(C#Cc2ccc(F)cc2)cn1 (racemic) [Example 2, 1-(2,4-difluorophenyl)-2,2-difluoro-2-(5-((4-fluorophenyl)ethynyl)pyridin-2-yl)-1-(pyrimidin-5-yl)ethanol] | 80 to 100 |
| ≤ 0.5 |  | O=[N+]([O-])c1ccc(C#Cc2ccc(C(F)(F)C(O)(c3cncnc3)c3ccc(F)cc3F)nc2)cc1 (racemic) [Example 16, 1-(2,4-Difluorophenyl)-2,2-difluoro-2-(5-((4-nitrophenyl)ethynyl)pyridin-2-yl)-1-(pyrimidin-5-yl)ethanol] | 60 to 79 |
| ≤ 0.5 |  | N#Cc1cccc(C#Cc2ccc(C(F)(F)C(O)(c3cncnc3)c3ccc(F)cc3F)nc2)c1 (racemic) [Example 18, 3-((6-(2-(2,4-Difluorophenyl)-1,1-difluoro-2-hydroxy-2-(pyrimidin-5-yl)ethyl)pyridin-3-yl)ethynyl)benzonitrile] | 80 to 100 |
| ≤ 0.5 |  | Nc1ccc(C#Cc2ccc(C(F)(F)C(O)(c3cncnc3)c3ccc(F)cc3F)nc2)cc1 (racemic) [Example 20, 2-(5-((4-Aminophenyl)ethynyl)pyridin-2-yl)-1-(2,4-difluorophenyl)-2,2-difluoro-1-(pyrimidin-5-yl)ethanol] | 60 to 79 |
| ≤ 0.5 |  | OC(c1cncnc1)(c1ccc(F)cc1F)C(F)(F)c1ccc(C#Cc2ccc(OC(F)F)cc2)cn1 (racemic) [Example 21, 2-(5-((4-(Difluoromethoxy)phenyl)ethynyl)pyridin-2-yl)-1-(2,4-difluorophenyl)-2,2-difluoro-1-(pyrimidin-5-yl)ethanol] | 80 to 100 |
| 0.5 to 1.5 (≈ 1.24 to 3.71 µM) |  | CC(C)C(O)(c1cncnc1)C(F)(F)c1ccc(C#Cc2ccc(C#N)cc2)cn1 (racemic) [Example 35] | < 40 |
| ≤ 0.5 |  | N#Cc1ccc(C#Cc2ccc(C(F)(F)C(O)(c3cncnc3)c3ccc(F)cc3F)nc2)s1 (racemic) [Example 37] | 60 to 79 |
| 0.5 to 1.5 (≈ 0.892 to 2.68 µM) |  | O=C(Nc1ccc(C#Cc2ccc(C(F)(F)C(O)(c3cncnc3)c3ccc(F)cc3F)nc2)cc1)C(F)(F)F (racemic) [Example 38] | < 40 |
| ≤ 0.5 |  | N#Cc1ccc(C#Cc2ccc(C(F)(F)C(O)(c3ccc(Cl)cc3)c3cncnc3)nc2)cc1 (racemic) [Example 43] | 60 to 79 |
| ≤ 0.5 |  | CC(C)(C)C(O)(c1cncnc1)C(F)(F)c1ccc(C#Cc2ccc(F)cc2)cn1 (racemic) [Example 48] | < 40 |
| 0.5 to 1.5 (≈ 1.08 to 3.24 µM) |  | Nc1ccc(C#Cc2ccc(C(F)(F)C(O)(c3ccc(Cl)cc3)c3cncnc3)nc2)cc1 (racemic) [Example 55] | < 40 |
| ≤ 0.5 |  | CC(C)(C)C(O)(c1cncnc1)C(F)(F)c1ccc(C#Cc2ccc(Cl)cc2)cn1 (racemic) [Example 62] | < 40 |
| ≤ 0.5 |  | CC(C)C(O)(c1cncnc1)C(F)(F)c1ccc(C#Cc2ccc(Cl)cc2)cn1 (racemic) [Example 64] | < 40 |
| ≤ 0.5 |  | CC(C)C(O)(c1cncnc1)C(F)(F)c1ccc(C#Cc2cccc(C#N)c2)cn1 (racemic) [Example 67] | < 40 |
| ≤ 0.5 |  | OC(c1cncnc1)(C1CC1)C(F)(F)c1ccc(C#Cc2ccc(F)cc2)cn1 (racemic) [Example 70, 1-Cyclopropyl-2,2-difluoro-2-(5-((4-fluorophenyl)ethynyl)pyridin-2-yl)-1-(pyrimidin-5-yl)ethanol] | 80 to 100 |

Source: patent US20150246898A1, “METALLOENZYME INHIBITOR COMPOUNDS” (DOW AGROSCIENCES LLC, priority 2012, published 2015)
